From patent US9012678B2, “Processes for the preparation of fesoterodine” (Cadila Healthcare Limited, priority 2010, dated 2015)

Legend:
[1] = Particle Size Distribution (PSD) by laser diffraction in a Malvern Master Sizer; type: physicochemical
Experimental: Particle Size Distribution (PSD)” is determined by laser diffraction in a Malvern Master Sizer by using known method.

[2] = Stability study for Fesoterodine Fumarate (description, water by KF, related substances by HPLC on storage); type: physicochemical
Experimental: As used herein, the term “stable fesoterodine fumarate” fesoterodine fumarate containing any individual impurities less than 0.15% after exposure to a relative humidity of 60% at 25° for a period of at least three months or after exposure to a relative humidity of 75% at 40° for a period of at least three months
2) High Performance Liquid Chromatography (HPLC) Method for Determination of Impurity X in Fesoterodine Fumarate of formula (1)
• Equipment: Shimadzu LC2010C HPLC system equipped with a wavelength UV-VIS detector or equivalent. • Column: Inertsil ODS-3 (250 mm×4.6 mm, 5 μm), Make: GL Sciences Part No: 5020-01732 • Flow rate: 1.2 mL/minute • Column oven temp: 30° C. • Wavelength: 220 nm • Injection volume: 10 μL • Run time: 60 minutes • Diluent: Premixed buffer and acetonitrile in the volume ratio of 75:25. Preparation of Buffer:
Transfer 1 mL orthophosphoric acid in 1000 mL volumetric flask containing about 500 mL of water and make up the volume with water. Filter through 0.2 μm membrane filter paper.
Weigh accurately and transfer about 25 mg of sample of Fesoterodine Fumarate or Fesoterodine Fumarate (technical) into a 50 mL volumetric flask. Add 5 mL tetrahydrofuran, sonicate to dissolve and make up the volume with diluent. Make fresh two preparations at the time of injection.
Inject sample solutions containing the chromatogram upto the end of gradient. Determine the area of each impurity using suitable integrator.

[3] = 1 Month 2 to 8° C., PSD: D(90) = 10 microns
[4] = 1 Month 2 to 8° C., PSD: D(90) = 270 microns
[5] = 1 Month 25° C. ± 2° C./RH 60% ± 5%, PSD: D(90) = 10 microns
[6] = 1 Month 25° C. ± 2° C./RH 60% ± 5%, PSD: D(90) = 270 microns
[7] = 1 Month 40° C. ± 2° C./RH 75% ± 5%, PSD: D(90) = 10 microns
[8] = 1 Month 40° C. ± 2° C./RH 75% ± 5%, PSD: D(90) = 270 microns
[9] = 2 Months 2 to 8° C., PSD: D(90) = 10 microns
[10] = 2 Months 2 to 8° C., PSD: D(90) = 270 microns
[11] = 2 Months 25° C. ± 2° C./RH 60% ± 5%, PSD: D(90) = 270 microns
[12] = 2 Months 25° C. ± 2° C./RH, PSD: D(90) = 10 microns
[13] = 2 Months 40° C. ± 2° C./RH 75% ± 5%, PSD: D(90) = 10 microns
[14] = 2 Months 40° C. ± 2° C./RH 75% ± 5%, PSD: D(90) = 270 microns
[15] = 3 Months 2 to 8° C., PSD: D(90) = 10 microns
[16] = 3 Months 2 to 8° C., PSD: D(90) = 270 microns
[17] = 3 Months 25° C. ± 2° C./RH 60% ± 5%, PSD: D(90) = 10 microns
[18] = 3 Months 25° C. ± 2° C./RH 60% ± 5%, PSD: D(90) = 270 microns
[19] = 3 Months 40° C. ± 2° C./RH 75% ± 5%, PSD: D(90) = 10 microns
[20] = 3 Months 40° C. ± 2° C./RH 75% ± 5%, PSD: D(90) = 270 microns
[21] = Initial, PSD: D(90) = 10 microns
[22] = Initial, PSD: D(90) = 270 microns

PSD: D(90) ([1]; batch from IPA/diisopropyl ether, D(90) less than 200 microns): PSD: D(90) = 10 microns
PSD: D(90) ([1]; batch of Example 16 (methyl ethyl ketone/cyclohexane, seeded), D(90) higher than 200 microns): PSD: D(90) = 270 microns
Description [2, 3]: White
Related substance (by HPLC) i) Diol [2, 3]: 0.06 % w/w
Related substance (by HPLC) ii) Diester [2, 3]: 0.03 % w/w
Related substance (by HPLC) iii) Oxidized (RRT 1.37) [2, 3]: 0.09 % w/w
Related substance (by HPLC) iv) Any individual impurities [2, 3]: 0.03 % w/w
Related substance (by HPLC) v) Total impurities [2, 3]: 0.21 % w/w
Water by KF [2, 3]: 0.16 % w/w
Description [2, 4]: White
Related substance i) Diol [2, 4]: 0.05%
Related substance ii) Diester [2, 4]: BQL
Related substance iii) Oxidized (RRT 1.37) [2, 4]: BQL
Related substance iv) Any individual impurities [2, 4]: BQL
Related substance v) Total impurities [2, 4]: 0.05%
Water by KF [2, 4]: 0.16 % w/w
Description [2, 5]: White
Related substance (by HPLC) i) Diol [2, 5]: 0.09 % w/w
Related substance (by HPLC) ii) Diester [2, 5]: BQL
Related substance (by HPLC) iii) Oxidized (RRT 1.37) [2, 5]: 0.15 % w/w
Related substance (by HPLC) iv) Any individual impurities [2, 5]: 0.02 % w/w
Related substance (by HPLC) v) Total impurities [2, 5]: 0.26 % w/w
Water by KF [2, 5]: 0.15 % w/w
Description [2, 6]: White
Related substance i) Diol [2, 6]: 0.05%
Related substance ii) Diester [2, 6]: BQL
Related substance iii) Oxidized (RRT 1.37) [2, 6]: BQL
Related substance iv) Any individual impurities [2, 6]: BQL
Related substance v) Total impurities [2, 6]: 0.05%
Water by KF [2, 6]: 0.15 % w/w
Description [2, 7]: White
Related substance (by HPLC) i) Diol [2, 7]: 0.07 % w/w
Related substance (by HPLC) ii) Diester [2, 7]: BQL
Related substance (by HPLC) iii) Oxidized (RRT 1.37) [2, 7]: 0.17 % w/w
Related substance (by HPLC) iv) Any individual impurities [2, 7]: 0.02 % w/w
Related substance (by HPLC) v) Total impurities [2, 7]: 0.28 % w/w
Water by KF [2, 7]: 0.12 % w/w
Description [2, 8]: White
Related substance i) Diol [2, 8]: 0.33%
Related substance ii) Diester [2, 8]: 0.04%
Related substance iii) Oxidized (RRT 1.37) [2, 8]: 0.06%
Related substance iv) Any individual impurities [2, 8]: 0.06%
Related substance v) Total impurities [2, 8]: 0.59%
Water by KF [2, 8]: 0.56 % w/w
Description [2, 9]: White
Related substance (by HPLC) i) Diol [2, 9]: 0.06 % w/w
Related substance (by HPLC) ii) Diester [2, 9]: BQL
Related substance (by HPLC) iii) Oxidized (RRT 1.37) [2, 9]: 0.09 % w/w
Related substance (by HPLC) iv) Any individual impurities [2, 9]: 0.03 % w/w
Related substance (by HPLC) v) Total impurities [2, 9]: 0.21 % w/w
Water by KF [2, 9]: 0.16 % w/w
Description [2, 10]: White
Related substance i) Diol [2, 10]: 0.06%
Related substance ii) Diester [2, 10]: BQL
Related substance iii) Oxidized (RRT 1.37) [2, 10]: BQL
Related substance iv) Any individual impurities [2, 10]: BQL
Related substance v) Total impurities [2, 10]: 0.06%
Water by KF [2, 10]: 0.16 % w/w
Description [2, 11]: White
Related substance i) Diol [2, 11]: 0.04%
Related substance ii) Diester [2, 11]: BQL
Related substance iii) Oxidized (RRT 1.37) [2, 11]: BQL
Related substance iv) Any individual impurities [2, 11]: BQL
Related substance v) Total impurities [2, 11]: 0.04%
Water by KF [2, 11]: 0.15 % w/w
Description [2, 12]: White
Related substance (by HPLC) i) Diol [2, 12]: 0.09 % w/w
Related substance (by HPLC) ii) Diester [2, 12]: BQL
Related substance (by HPLC) iii) Oxidized (RRT 1.37) [2, 12]: 0.17 % w/w
Related substance (by HPLC) iv) Any individual impurities [2, 12]: 0.02 % w/w
Related substance (by HPLC) v) Total impurities [2, 12]: 0.26 % w/w
Water by KF [2, 12]: 0.15 % w/w
Description [2, 13]: White
Related substance (by HPLC) i) Diol [2, 13]: 0.07 % w/w
Related substance (by HPLC) ii) Diester [2, 13]: BQL
Related substance (by HPLC) iii) Oxidized (RRT 1.37) [2, 13]: 0.27 % w/w
Related substance (by HPLC) iv) Any individual impurities [2, 13]: 0.04 % w/w
Related substance (by HPLC) v) Total impurities [2, 13]: 0.49 % w/w
Water by KF [2, 13]: 0.12 % w/w
Description [2, 14]: White
Related substance i) Diol [2, 14]: 0.5%
Related substance ii) Diester [2, 14]: 0.05%
Related substance iii) Oxidized (RRT 1.37) [2, 14]: 0.05%
Related substance iv) Any individual impurities [2, 14]: 0.07%
Related substance v) Total impurities [2, 14]: 0.22%
Water by KF [2, 14]: 0.2 % w/w
Description [2, 15]: White
Related substance (by HPLC) i) Diol [2, 15]: 0.06 % w/w
Related substance (by HPLC) ii) Diester [2, 15]: 0.03 % w/w
Related substance (by HPLC) iii) Oxidized (RRT 1.37) [2, 15]: 0.08 % w/w
Related substance (by HPLC) iv) Any individual impurities [2, 15]: 0.03 % w/w
Related substance (by HPLC) v) Total impurities [2, 15]: 0.21 % w/w
Water by KF [2, 15]: 0.16 % w/w
Description [2, 16]: White
Related substance i) Diol [2, 16]: 0.06%
Related substance ii) Diester [2, 16]: BQL
Related substance iii) Oxidized (RRT 1.37) [2, 16]: BQL
Related substance iv) Any individual impurities [2, 16]: BQL
Related substance v) Total impurities [2, 16]: 0.06%
Water by KF [2, 16]: 0.16 % w/w
Description [2, 17]: White
Related substance (by HPLC) i) Diol [2, 17]: 0.09 % w/w
Related substance (by HPLC) ii) Diester [2, 17]: BQL
Related substance (by HPLC) iii) Oxidized (RRT 1.37) [2, 17]: 0.19 % w/w
Related substance (by HPLC) iv) Any individual impurities [2, 17]: 0.02 % w/w
Related substance (by HPLC) v) Total impurities [2, 17]: 0.26 % w/w
Water by KF [2, 17]: 0.16 % w/w
Description [2, 18]: White
Related substance i) Diol [2, 18]: 0.06%
Related substance ii) Diester [2, 18]: BQL
Related substance iii) Oxidized (RRT 1.37) [2, 18]: BQL
Related substance iv) Any individual impurities [2, 18]: BQL
Related substance v) Total impurities [2, 18]: 0.06%
Water by KF [2, 18]: 0.16 % w/w
Description [2, 19]: White
Related substance (by HPLC) i) Diol [2, 19]: 0.07 % w/w
Related substance (by HPLC) ii) Diester [2, 19]: BQL
Related substance (by HPLC) iii) Oxidized (RRT 1.37) [2, 19]: 0.29 % w/w
Related substance (by HPLC) iv) Any individual impurities [2, 19]: 0.04 % w/w
Related substance (by HPLC) v) Total impurities [2, 19]: 0.49 % w/w
Water by KF [2, 19]: 0.12 % w/w
Description [2, 20]: White
Related substance i) Diol [2, 20]: 0.6%
Related substance ii) Diester [2, 20]: 0.06%
Related substance iii) Oxidized (RRT 1.37) [2, 20]: 0.06%
Related substance iv) Any individual impurities [2, 20]: 0.04%
Related substance v) Total impurities [2, 20]: 0.22%
Water by KF [2, 20]: 0.12 % w/w
Description [2, 21]: White
Related substance (by HPLC) i) Diol [2, 21]: 0.06 % w/w
Related substance (by HPLC) ii) Diester [2, 21]: 0.02 % w/w
Related substance (by HPLC) iii) Oxidized (RRT 1.37) [2, 21]: 0.05 % w/w
Related substance (by HPLC) iv) Any individual impurities [2, 21]: 0.02 % w/w
Related substance (by HPLC) v) Total impurities [2, 21]: 0.15 % w/w
Water by KF [2, 21]: 0.2 % w/w
Description [2, 22]: White
Related substance i) Diol [2, 22]: 0.1%
Related substance ii) Diester [2, 22]: 0.05%
Related substance iii) Oxidized (RRT 1.37) [2, 22]: 0.06%
Related substance iv) Any individual impurities [2, 22]: 0.02%
Related substance v) Total impurities [2, 22]: 0.21%
Water by KF [2, 22]: 0.33 % w/w
degradation of fesoterodine under stress conditions ([2]; fesoterodine fumarate with higher particle size): significantly slow down the degradation
SMILES: CC(C)C(=O)Oc1ccc(CO)cc1[C@H](CCN(C(C)C)C(C)C)c1ccccc1.O=C(O)/C=C/C(=O)O [Fesoterodine Fumarate, isobutyric acid 2-[(R)-3-diisopropylammonium-1-phenylpropyl)-4-(hydroxy-methyl)phenyl ester hydrogen fumarate]
